Experimental findings from article PMC3581553, “New Approaches of PARP-1 Inhibitors in Human Lung Cancer Cells and Cancer Stem-Like Cells by Some Selected Anthraquinone-Derived Small Molecules” (PLoS ONE, 2013) are described below.

Structures are written as SMILES. Read-outs that look alike come from different tables or passages of the source.

One assay concerns EKVX. The assay can be described thus: NCI-60 drug screen (SRB), NSCLC line EKVX. It counts as cell-based, human. The note with it: for LC50 / GI50: Homo sapiens. As to the method: (§1) As a primary screening, seven selected compounds were submitted to the National Cancer Institute (NCI) cell lines screen for evaluation of their anticancer activity. From the data analysis, it follows that approximately 95% of the actives from the 60 cell lines screen can be identified. The detailed methods used for the 60 cell lines panel have been described elsewhere [54]–[59]. Briefly, cellular protein levels were determined after 48 hours of drug exposure by SRB colorimetry. Through the use of a time zero cell control, the cell growth can be determined for each cell line thus allowing calculations of GI50, TGI, and LC50. Comparison to plates not exposed to drug permits determination of concentration and times of exposure conferring GI50, TGI, and LC50. […] By these criteria, seven compounds reported from our compounds bank were all active and passed on for evaluation in the full panel of 60 human tumor cell lines. The panel is organized into nine subpanels representing diverse histology: leukemia, melanoma, and cancers of the lung, colon, kidney, ovary, breast, prostate, and central nervous system.

The subject of a further assay is NCI-H322M. The assay can be described thus: NCI-60 drug screen (SRB), NSCLC line NCI-H322M. The note with it: for LC50 / GI50: Homo sapiens. The format is cell-based, human. On the procedure: as §1
The test system of a further assay is NCI-H522. Put plainly: NCI-60 drug screen (SRB), NSCLC line NCI-H522. The format is cell-based, human. Conditions: for GI50 / CC50: Homo sapiens; for CC50: read-out: LC50 (the source's name). As to the method:
as §1

Another assay has as its system HEL299 cells. The assay can be described thus: MTT cytotoxicity assay, HEL299 normal fibroblasts. The format is cell-based. The note with it: Homo sapiens, HEL 299, 48 h of drug exposure. On the procedure:
Non-small cell lung cancer cells A549 and Oct-4- and Nanog-overexpressed A549 clone (clone #3; A3), presented the properties of cancer stem-like cells, as well as epithelial-mesenchymal transdifferentiation, according to our previous study. They were grown in the same conditions as RPMI 1640 media supplemented with 10% fetal bovine serum (FBS), 100 units/mL penicillin, […] streptomycin, 1 mM sodium pyruvate, 2 mM l-glutamine and 1% non-essential amino acid (NEAA) in a humidified atmosphere with 5% CO2 at 37°C. Normal fibroblast cells HEL299 from American Type Culture Collection (ATCC) were grown in MEM media supplemented with 10% FBS, 100 units/mL penicillin, […] streptomycin, 1 mM sodium pyruvate, 2 mM l-glutamine and 1% NEAA, in a humidified atmosphere with 5% CO2 at 37°C.
The tetrazolium reagent (MTT; 3-(4,5-dimethylthiazol-2-yl)-2,5-diphenyl-tetrazolium bromide, USB) was designed to yield a colored formazan upon metabolic reduction by viable cells, [61]. Approximately 5×10^4 cells were plated onto each well of a 24-well plate and incubated in 5% CO2 at 37°C for 24 hours. To assess the in vitro cytotoxicity, each compound was dissolved in DMSO and prepared immediately before the experiments and then was diluted into the complete medium before being added to cell cultures. Test compounds were then added to the culture medium in various designated concentrations. After 48 hours, an amount of 100 µl of MTT was added to each well, and the samples were incubated at 37°C for 2 h. 100 µl DMSO was added to each well. The absorbency at 560 nm and reference absorbency at 670 nm were measured using an ELISA reader.

[1] abbreviates: 48 hours drug exposure, SRB, read-out: GI50.
The mark [2] stands for this setting: NCI in vitro 60-cell lines Drug Screen, read-out: -Log GI50 (converted).

A word on the TGI: it is the concentration giving total growth inhibition. Higher therefore signals less potent growth arrest. Usually LC50 stands for the concentration that kills 50% of the test population. Lower therefore signals greater toxicity. What is called GI50 is the concentration that inhibits growth by half. By IC50 is commonly meant the concentration at which inhibition is half-maximal. Read a high IC50 as lower potency. `CN1CCN(Cc2nc3ccc4c(c3[nH]2)C(=O)c2ccccc2C4=O)CC1` [NSC749235]: the TGI turned out to be 28.8 µM in the assay with EKVX (48 hours drug exposure, SRB); 43.3 µM in the assay on NCI-H322M (48 hours drug exposure, SRB); 29.0 µM in the assay on NCI-H522 (48 hours drug exposure, SRB). For the same compound, the median lethal concentration (LC50) in the assay with EKVX (48 hours drug exposure, SRB) was > 100 µM; with NCI-H322M (48 hours drug exposure, SRB) it was > 100 µM. Moreover, the GI50 in the assay on EKVX (setting [1]) was 6.69 µM; in the assay with EKVX (setting [2]), 6.76 µM; in the assay with NCI-H322M (setting [1]), 8.7 µM; in the assay with NCI-H322M (setting [2]), 8.71 µM; in the assay with NCI-H522 (setting [1]), 13.8 µM; in the assay on NCI-H522 (setting [2]), 13.8 µM. The CC50 in the assay on NCI-H522 (48 hours drug exposure, SRB) came out at 61 µM. Moreover, the IC50 in the assay with HEL299 cells was determined as 19.6 µM.

Consider `CCN(CC)CCC(=O)Nc1ccc2c(c1)C(=O)c1cc(NC(=O)CCN(CC)CC)ccc1C2=O` [NSC746365], for which the TGI in the assay with EKVX (48 hours drug exposure, SRB) worked out at 11.0 µM; in the assay on NCI-H522 (48 hours drug exposure, SRB) it was 4.59 µM. The LC50 in the assay with EKVX (48 hours drug exposure, SRB) worked out at 34.6 µM; with NCI-H322M (48 hours drug exposure, SRB) it was 4.71 µM. Besides, the GI50 was 3.05 µM in the assay with EKVX (setting [1]); 3.02 µM in the assay with EKVX (setting [2]); 2.85 µM in the assay with NCI-H322M (setting [1]); 2.82 µM in the assay with NCI-H322M (setting [2]); 1.4 µM with NCI-H522 (setting [1]); 1.38 µM with NCI-H522 (setting [2]). The CC50 with NCI-H522 (48 hours drug exposure, SRB) was found to be 19.3 µM. Besides, the IC50 in the assay on HEL299 cells amounted to 7.19 µM.

Consider `CN(C)CC(=O)Nc1ccc2c(c1)C(=O)c1cc(NC(=O)CN(C)C)ccc1C2=O` [NSC746364], for which the TGI in the assay with EKVX (48 hours drug exposure, SRB) turned out to be 31.4 µM; in the assay on NCI-H322M (48 hours drug exposure, SRB), 4.91 µM; in the assay on NCI-H522 (48 hours drug exposure, SRB), 13.1 µM. Besides, the median lethal concentration (LC50) is 77.4 µM with EKVX (48 hours drug exposure, SRB) and 83.1 µM with NCI-H322M (48 hours drug exposure, SRB). Further, the GI50 was 12.8 µM in the assay on EKVX (setting [1]); 12.9 µM with EKVX (setting [2]); 1.86 µM in the assay with NCI-H322M (setting [1]); 1.86 µM in the assay with NCI-H322M (setting [2]); 1.27 µM in the assay with NCI-H522 (setting [1]); 1.26 µM with NCI-H522 (setting [2]). Further, the CC50 in the assay on NCI-H522 (48 hours drug exposure, SRB) is 66.4 µM. Further, in the assay on HEL299 cells, the IC50 was 5.67 µM.

For `O=C(CCN1CCCC1)Nc1ccc2c(c1)C(=O)c1cc(NC(=O)CCN3CCCC3)ccc1C2=O` [NSC746366], the TGI in the assay with EKVX (48 hours drug exposure, SRB) was found to be 20.4 µM; in the assay with NCI-H322M (48 hours drug exposure, SRB), 10.9 µM; with NCI-H522 (48 hours drug exposure, SRB), 17.1 µM. For the same compound, the LC50 in the assay on EKVX (48 hours drug exposure, SRB) is > 100 µM; with NCI-H322M (48 hours drug exposure, SRB), 42 µM. Moreover, the GI50 in the assay on EKVX (setting [1]) is 3.57 µM; in the assay on EKVX (setting [2]), 3.55 µM; with NCI-H322M (setting [1]), 1.81 µM; in the assay on NCI-H322M (setting [2]), 1.82 µM; with NCI-H522 (setting [1]), 3.41 µM; in the assay with NCI-H522 (setting [2]), 3.39 µM. In the assay on NCI-H522 (48 hours drug exposure, SRB), the CC50 is > 100 µM. The half-inhibitory concentration (IC50) with HEL299 cells was 13.4 µM.

As for `CN(C)CCCSc1nc2ccc3c(c2[nH]1)C(=O)c1ccccc1C3=O` [NSC747854], the TGI in the assay with EKVX (48 hours drug exposure, SRB) worked out at 20.1 µM; in the assay with NCI-H322M (48 hours drug exposure, SRB), 20.6 µM; with NCI-H522 (48 hours drug exposure, SRB), 24.9 µM. The GI50 in the assay with EKVX (setting [1]) was 4.2 µM; in the assay on EKVX (setting [2]), 4.17 µM; with NCI-H322M (setting [1]) it was 0.72 µM; with NCI-H322M (setting [2]), 0.724 µM; in the assay with NCI-H522 (setting [1]), 1.22 µM; in the assay with NCI-H522 (setting [2]), 12.3 µM. In addition, the CC50 with NCI-H522 (48 hours drug exposure, SRB) amounted to 50 µM. This compound returned an IC50 with HEL299 cells of 27.8 µM.

As to `Cc1ccc(C(=O)Nc2c(NC(=O)CCl)ccc3c2C(=O)c2ccccc2C3=O)cc1` [NSC749232], the TGI in the assay with EKVX (48 hours drug exposure, SRB) is given as 14.9 µM; with NCI-H322M (48 hours drug exposure, SRB), 13.7 µM; in the assay with NCI-H522 (48 hours drug exposure, SRB), 2.03 µM. The LC50 in the assay on EKVX (48 hours drug exposure, SRB) is > 100 µM; with NCI-H322M (48 hours drug exposure, SRB) it was 45.4 µM. The GI50 in the assay on EKVX (setting [1]) was 1.98 µM; in the assay on EKVX (setting [2]), 2 µM; in the assay with NCI-H322M (setting [1]), 3.76 µM; in the assay on NCI-H322M (setting [2]) it was 3.8 µM; in the assay with NCI-H522 (setting [1]), 8.95 µM; in the assay with NCI-H522 (setting [2]) it was 0.891 µM. Further, the IC50 in the assay on HEL299 cells was 27.1 µM.
